Counter-ions that a name gives are not always drawn.

For the compound `CCNC(=O)CCOc1nc(-c2ncccn2)nc(NS(=O)(=O)c2ccc(C(C)(C)C)cc2)c1Oc1ccccc1OC` (as salt: sodium) [Compound No. 49, N-ethyl-3-[6-(4-t-butylphenylsulfonylamino)-5-(2-methoxyphenoxy)-2-(2-pyrimidinyl)-4-pyrimidinyloxy]-propionamide], the melting point is 117 to 120 °C.

Broadly, the melting point is the temperature of the solid-liquid transition.

(Values after US6337334B1, “Pyrimidine derivatives” (Kowa Co., Ltd., priority 1994, dated 2002).)
